Measured values published in US20130281420A1, “Ophthalmic Formulations of Squalamine” (Ohr Pharmaceutical, Inc., priority 2010, published 2013).
Where a name gives a salt, the structure may show the parent alone. Read-outs that look alike come from different tables or passages of the source.

What was measured:
[1] = tested on: human vascular endothelial cells (HUVEC); assay: Inhibition of VEGF induced tube formation by HUVEC; format: cell-based; details: 50 nM (tested at 50, 100, 200 nM), 24 hrs, Matrigel with VEGF
Protocol: Squalamine lactate was mixed in solution at 50, 100 or 200 nM concentration with a suspension of human vascular endothelial cells (HUVEC). The suspension was then immediately plated on Matrigel which contained multiple growth factors including vascular endothelial cell growth factor (VEGF). The plates were incubated at 37° C. in an atmosphere of […] for 24 hrs and then the plates were photographed.

[2] = tested on: AMD; details: cited from earlier work
[3] = Ocular biodistribution study following ocular administration; format: in vivo, Dutch-Belted rabbits; details: formulation G, 0.08 mg/eye once; for concentration at 15 min / concentration at 30 min / concentration at 3 h: male, Dutch-Belted, rabbit, posterior sclera and choroid, other: ocular administration, 0.08 mg/eye
Protocol: The objective of this study was to determine the ocular biodistribution of squalamine lactate formulation G (see composition above) when given once by ocular administration to male Dutch-Belted rabbits.
The study design was as follows:
Body weight measurements were taken for randomization/dose calculation purposes. […] Following dose administration, blood samples were collected at specified time points and plasma was prepared. After blood sample collection, the animals were euthanized and a necropsy was performed to collect the following ocular tissues: aqueous humor, vitreous humor, sensory retina and choroid/sclera.

[4] = any animals (15 min, 30 min, 3 hrs)
[5] = mean of eyes, read-out: Squalamine in posterior sclera and choroid, Mean

CC(C)[C@@H](CC[C@@H](C)[C@H]1CC[C@H]2[C@@H]3[C@H](O)C[C@H]4C[C@@H](NCCCNCCCCN)CC[C@]4(C)[C@H]3CC[C@]12C)OS(=O)(=O)O [Squalamine, ([6-[(3S,5R,7R,10S,13R,145)-3-[3-(4-aminobutylamino)propylamino]-7-hydroxy-10,13-dimethyl-2,3,4,5,6,7,8,9,11,12,14,15,16,17-tetradecahydro-1H-cyclopenta[a]phenanthren-17-yl]-2-methylheptan-3-yl]hydrogen sulfate)]
HUVEC tube formation on Matrigel [1]: disrupts tube formation
visual acuity ([2]; IV infusion, after the first four to five weeks of administration): good gains in visual acuity
plasma half-life ([2]; human subjects, 40 mg dose, intravenous infusion): short
adverse reactions of intravenous dosing ([2]; intravenous dosing, human): local infusion-site reactions
Squalamine in posterior sclera and choroid ([3]; 30 min, An#105 left eye): BQL
Level of squalamine in aqueous humor [3, 4]: No quantifiable levels
Level of squalamine in vitreous humor [3, 4]: No quantifiable levels
concentration at 15 min ([3]; An#101 left eye, read-out: Squalamine in posterior sclera and choroid): 101 ng/g
concentration at 15 min ([3]; An#101 right eye, read-out: Squalamine in posterior sclera and choroid): 26.6 ng/g
concentration at 15 min ([3]; An#102 left eye, read-out: Squalamine in posterior sclera and choroid): 44.2 ng/g
concentration at 15 min ([3]; An#102 right eye, read-out: Squalamine in posterior sclera and choroid): 145 ng/g
concentration at 15 min ([3]; An#103 left eye, read-out: Squalamine in posterior sclera and choroid): 195 ng/g
concentration at 15 min ([3]; An#103 right eye, read-out: Squalamine in posterior sclera and choroid): 31.7 ng/g
concentration at 15 min [3, 5]: 90.6 ng/g
concentration at 30 min ([3]; 30 min, An#104 left eye, read-out: Squalamine in posterior sclera and choroid): 54.4 ng/g
concentration at 30 min ([3]; 30 min, An#104 right eye, read-out: Squalamine in posterior sclera and choroid): 121 ng/g
concentration at 30 min ([3]; 30 min, An#105 right eye, read-out: Squalamine in posterior sclera and choroid): 78.9 ng/g
concentration at 30 min ([3]; 30 min, An#106 left eye, read-out: Squalamine in posterior sclera and choroid): 96.7 ng/g
concentration at 30 min ([3]; 30 min, An#106 right eye, read-out: Squalamine in posterior sclera and choroid): 94.1 ng/g
concentration at 30 min ([3]; 30 min, mean of eyes, read-out: Squalamine in posterior sclera and choroid, Mean): 89 ng/g
concentration at 3 h ([3]; An#107 left eye, read-out: Squalamine in posterior sclera and choroid): 23.9 ng/g
concentration at 3 h ([3]; An#107 right eye, read-out: Squalamine in posterior sclera and choroid): 149 ng/g
concentration at 3 h ([3]; An#108 left eye, read-out: Squalamine in posterior sclera and choroid): 26 ng/g
concentration at 3 h ([3]; An#108 right eye, read-out: Squalamine in posterior sclera and choroid): 34.6 ng/g
concentration at 3 h ([3]; An#109 left eye, read-out: Squalamine in posterior sclera and choroid): 71.8 ng/g
concentration at 3 h ([3]; An#109 right eye, read-out: Squalamine in posterior sclera and choroid): 51.1 ng/g
concentration at 3 h [3, 5]: 59.4 ng/g
